The subject of one data set is rodents. The conditions noted are these: in vivo.
The next data set relates to benign thyroid diseases. The data set is described as follows: I-131 therapy of benign thyroid diseases, retrospective analysis. Format: in vivo. The conditions noted are these: 127 patients. As for the experimental part: A retrospective analysis was carried out for patients with benign thyroid conditions who underwent single or double I-131 therapy for benign thyroid disease at our department between January 2009 and December 2021. The thyroid function status of the patients was also documented prior to discharge.

The structures appear in SMILES notation.

Turning to `CCCC(C)C1(CC)C(=O)NC(=O)NC1=O` (stereo not drawn) [Pentobarbital, pentobarbital], in the data set on rodents, the “effect on glucose metabolism” value was “does not alter the blood glucose metabolism” and the “safety margin for rodent anaesthesia” value is “lower safety margin”.

Turning to `FCOC(C(F)(F)F)C(F)(F)F` [sevoflurane], the “effect on glucose metabolism” value with rodents is “induced hypoglycaemia”. On to `FC(F)OC(Cl)C(F)(F)F` (stereo not drawn) [isoflurane], for which the “effect on glucose metabolism” value with rodents is recorded as “induced hypoglycaemia”. On the same count and under the same terms, the entry for `CC(C)c1cccc(C(C)C)c1O` [Propofol, propofol] is “decreased cerebral glucose metabolism”. As to `[131IH]` [RAI], the “patients who required retreatment as they remained hyperthyroid” value with benign thyroid diseases (after single RAI therapy, n = 33) came to 26%. Also, the “patients who responded to the single RAI therapy (euthyroid or hypothyroid)” value in the data set on benign thyroid diseases (empirical dose 10 mCi to 40 mCi, n = 94) is “Seventy-four per cent”. The “patients euthyroid on discharge” value in the data set on benign thyroid diseases (single or double I-131 therapy, n = 40) turned out to be 31%. In addition, in the data set on benign thyroid diseases (single or double I-131 therapy, n = 83), the “patients hypothyroid on discharge” value came to 66%.
